In assay [1] the target is Activin receptor type-1 (Homo sapiens) (UniProt Q04771). The assay can be described thus: Inhibition of human ALK2 assessed as residual activity at 1 uM using casein as substrate by [gamma-33P]-ATP assay relative to control.
The target in assay [2] is Rhodopsin kinase GRK1 (Homo sapiens) (UniProt Q15835). The assay is described as follows: Inhibition of human GRK1 assessed as residual activity at 1 uM using casein as substrate by [gamma-33P]-ATP assay relative to control.
Rhodopsin kinase GRK1 (Homo sapiens), sequence (Q15835 whole entry): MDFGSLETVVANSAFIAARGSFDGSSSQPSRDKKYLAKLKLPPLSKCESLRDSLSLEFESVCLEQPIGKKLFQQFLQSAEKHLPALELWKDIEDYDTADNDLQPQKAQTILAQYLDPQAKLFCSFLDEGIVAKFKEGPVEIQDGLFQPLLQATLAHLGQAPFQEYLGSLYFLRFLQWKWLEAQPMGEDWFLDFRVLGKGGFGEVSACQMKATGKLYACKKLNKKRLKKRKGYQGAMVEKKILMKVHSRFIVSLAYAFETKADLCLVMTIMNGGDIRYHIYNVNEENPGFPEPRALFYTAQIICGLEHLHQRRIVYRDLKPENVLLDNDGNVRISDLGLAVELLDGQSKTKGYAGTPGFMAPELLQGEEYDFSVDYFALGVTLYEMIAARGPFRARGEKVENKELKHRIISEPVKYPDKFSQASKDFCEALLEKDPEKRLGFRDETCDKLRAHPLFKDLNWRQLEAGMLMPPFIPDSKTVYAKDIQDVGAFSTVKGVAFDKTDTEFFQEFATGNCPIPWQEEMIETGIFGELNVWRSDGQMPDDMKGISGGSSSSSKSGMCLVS
The target in assay [3] is Mitogen-activated protein kinase kinase kinase 3 (Homo sapiens) (UniProt Q99759). The assay can be described thus: Inhibition of human MEKK3 assessed as residual activity at 1 uM using MBP as substrate by [gamma-33P]-ATP assay relative to control.
For assay [4], the target named is T1, Serine/threonine-protein kinase Chk1 (Homo sapiens) (UniProt O14757).
T1 sequence (whole entry): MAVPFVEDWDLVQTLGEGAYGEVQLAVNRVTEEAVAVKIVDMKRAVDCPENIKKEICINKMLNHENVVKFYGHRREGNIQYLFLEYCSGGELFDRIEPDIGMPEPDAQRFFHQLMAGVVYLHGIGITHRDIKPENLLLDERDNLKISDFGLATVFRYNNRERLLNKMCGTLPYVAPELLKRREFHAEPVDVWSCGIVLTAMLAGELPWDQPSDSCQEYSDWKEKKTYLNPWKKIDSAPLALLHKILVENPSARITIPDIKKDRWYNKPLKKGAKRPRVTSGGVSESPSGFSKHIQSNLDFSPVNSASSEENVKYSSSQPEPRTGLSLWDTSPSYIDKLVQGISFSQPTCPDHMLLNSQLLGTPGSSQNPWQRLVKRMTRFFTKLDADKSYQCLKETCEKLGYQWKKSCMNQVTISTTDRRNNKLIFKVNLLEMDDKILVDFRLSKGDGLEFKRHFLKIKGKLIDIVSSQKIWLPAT
The assay is described as follows: Inhibition of CHK1 phosphorylation at S317 residue in human FOLFOX-resistant HT-29 cells after 24 hrs by Western blot analysis.

Assay [5] deals with MAP/microtubule affinity-regulating kinase 4 (Homo sapiens) (UniProt Q96L34). The assay is described as follows: Inhibition of human MARK4 assessed as residual activity at 1 uM using KKKVSRSGLYRSPSMPENLNRPR as substrate by [gamma-33P]-ATP assay relative to control.
For assay [6], the target named is Serine/threonine-protein kinase 26 (Homo sapiens) (UniProt Q9P289). The assay is described as follows: Inhibition of human MST4 assessed as residual activity at 1 uM using MBP as substrate by [gamma-33P]-ATP assay relative to control.
Serine/threonine-protein kinase 26 (Homo sapiens), sequence (Q9P289 2-416 limits assumed): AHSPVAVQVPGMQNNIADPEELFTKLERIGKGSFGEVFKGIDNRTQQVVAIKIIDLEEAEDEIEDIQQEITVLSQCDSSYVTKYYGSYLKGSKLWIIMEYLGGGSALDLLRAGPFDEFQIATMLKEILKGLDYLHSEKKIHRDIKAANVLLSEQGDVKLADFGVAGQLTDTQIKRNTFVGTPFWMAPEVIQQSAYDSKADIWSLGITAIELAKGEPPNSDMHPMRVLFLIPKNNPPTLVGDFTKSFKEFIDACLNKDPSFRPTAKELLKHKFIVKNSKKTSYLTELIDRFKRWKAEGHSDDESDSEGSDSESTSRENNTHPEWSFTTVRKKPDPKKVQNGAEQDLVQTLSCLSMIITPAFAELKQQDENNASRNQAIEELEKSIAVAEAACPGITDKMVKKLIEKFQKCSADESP
The target in assay [7] is Serine/threonine-protein kinase 33 (Homo sapiens) (UniProt Q9BYT3). The assay is described as follows: Inhibition of human STK33 assessed as residual activity at 1 uM using MBP as substrate by [gamma-33P]-ATP assay relative to control.
Serine/threonine-protein kinase 33 (Homo sapiens), sequence (Q9BYT3 whole entry, looked up): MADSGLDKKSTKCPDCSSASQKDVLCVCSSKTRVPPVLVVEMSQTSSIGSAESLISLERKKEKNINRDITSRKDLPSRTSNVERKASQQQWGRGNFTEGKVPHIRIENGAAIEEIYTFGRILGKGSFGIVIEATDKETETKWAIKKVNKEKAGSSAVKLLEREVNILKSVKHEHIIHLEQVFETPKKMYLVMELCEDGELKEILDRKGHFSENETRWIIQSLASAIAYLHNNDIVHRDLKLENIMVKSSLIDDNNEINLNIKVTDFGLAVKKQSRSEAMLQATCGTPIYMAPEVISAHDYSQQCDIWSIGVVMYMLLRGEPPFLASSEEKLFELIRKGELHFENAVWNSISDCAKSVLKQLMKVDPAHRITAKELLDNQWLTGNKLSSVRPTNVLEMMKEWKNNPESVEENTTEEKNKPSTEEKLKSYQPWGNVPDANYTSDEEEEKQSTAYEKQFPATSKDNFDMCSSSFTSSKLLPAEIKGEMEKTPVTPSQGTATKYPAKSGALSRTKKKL
Assay [8] addresses Hepatocyte growth factor receptor (Homo sapiens) (UniProt P08581). The assay can be described thus: Inhibition of human c-MET assessed as residual activity at 1 uM using KKKSPGEYVNIEFG as substrate by [gamma-33P]-ATP assay relative to control.
Assay [9] has as its target Angiopoietin-1 receptor (Homo sapiens) (UniProt Q02763). The assay can be described thus: Inhibition of human TIE2 assessed as residual activity at 1 uM using poly[Glu:Tyr] (4:1) as substrate by [gamma-33P]-ATP assay relative to control.
For assay [10], the target named is Casein kinase II subunit alpha (Homo sapiens, UniProt P68400). The assay can be described thus: Inhibition of human CK2A assessed as residual activity at 1 uM using RRRDDDSDDD as substrate by [gamma-33P]-ATP assay relative to control.
Assay [11] concerns the target CDK2/Cyclin O (Homo sapiens) (UniProt P24941+P22674). The assay can be described thus: Inhibition of human CDK2/cyclin-O assessed as residual activity at 1 uM using histone H1 as substrate by [gamma-33P]-ATP assay relative to control. It is filed as protein-complex assay.
Assay [12] has as its target cAMP-dependent protein kinase catalytic subunit PRKX (Homo sapiens) (UniProt P51817). The assay can be described thus: Inhibition of human PRKX assessed as residual activity at 1 uM using LRRASLG as substrate by [gamma-33P]-ATP assay relative to control.
Assay [13] concerns the target Calcium/calmodulin-dependent protein kinase kinase 1 (Homo sapiens) (UniProt Q8N5S9). The assay is described as follows: Inhibition of human CAMKK1 assessed as residual activity at 1 uM using MBP as substrate by [gamma-33P]-ATP assay relative to control.
The target of assay [14] is Dual specificity protein kinase CLK4 (Homo sapiens) (UniProt Q9HAZ1). The assay can be described thus: Inhibition of human CLK4 assessed as residual activity at 1 uM using MBP as substrate by [gamma-33P]-ATP assay relative to control.
Assay [15] deals with Serine/threonine-protein kinase Nek9 (Homo sapiens) (UniProt Q8TD19). The assay is described as follows: Inhibition of human NEK9 assessed as residual activity at 1 uM using casein as substrate by [gamma-33P]-ATP assay relative to control.
For assay [16], the target named is Serine/threonine-protein kinase 17A (Homo sapiens) (UniProt Q9UEE5). The assay can be described thus: Inhibition of human DRAK1 assessed as residual activity at 1 uM using KKLNRTLSFAEPG as substrate by [gamma-33P]-ATP assay relative to control.
Serine/threonine-protein kinase 17A (Homo sapiens), sequence (Q9UEE5 whole entry): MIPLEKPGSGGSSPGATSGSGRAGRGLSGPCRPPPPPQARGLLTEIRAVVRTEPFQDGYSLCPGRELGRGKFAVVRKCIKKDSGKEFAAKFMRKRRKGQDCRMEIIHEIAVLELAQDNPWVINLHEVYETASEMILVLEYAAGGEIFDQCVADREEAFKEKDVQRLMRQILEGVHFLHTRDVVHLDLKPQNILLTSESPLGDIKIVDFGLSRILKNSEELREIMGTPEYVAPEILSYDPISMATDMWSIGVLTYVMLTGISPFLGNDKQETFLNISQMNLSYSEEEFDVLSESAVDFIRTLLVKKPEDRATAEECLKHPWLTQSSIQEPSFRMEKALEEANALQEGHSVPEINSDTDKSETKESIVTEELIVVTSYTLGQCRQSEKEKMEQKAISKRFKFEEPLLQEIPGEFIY
Assay [17] addresses Mitogen-activated protein kinase kinase kinase 5 (Homo sapiens) (UniProt Q99683). The assay is described as follows: Inhibition of human ASK1 assessed as residual activity at 1 uM using MBP as substrate by [gamma-33P]-ATP assay relative to control.
In assay [18] the target is Tyrosine-protein kinase ZAP-70 (Homo sapiens) (UniProt P43403). The assay can be described thus: Inhibition of human ZAP70 assessed as residual activity at 1 uM using poly[Glu:Tyr] (4:1) as substrate by [gamma-33P]-ATP assay relative to control.
Tyrosine-protein kinase ZAP-70 (Homo sapiens), sequence (P43403 whole entry): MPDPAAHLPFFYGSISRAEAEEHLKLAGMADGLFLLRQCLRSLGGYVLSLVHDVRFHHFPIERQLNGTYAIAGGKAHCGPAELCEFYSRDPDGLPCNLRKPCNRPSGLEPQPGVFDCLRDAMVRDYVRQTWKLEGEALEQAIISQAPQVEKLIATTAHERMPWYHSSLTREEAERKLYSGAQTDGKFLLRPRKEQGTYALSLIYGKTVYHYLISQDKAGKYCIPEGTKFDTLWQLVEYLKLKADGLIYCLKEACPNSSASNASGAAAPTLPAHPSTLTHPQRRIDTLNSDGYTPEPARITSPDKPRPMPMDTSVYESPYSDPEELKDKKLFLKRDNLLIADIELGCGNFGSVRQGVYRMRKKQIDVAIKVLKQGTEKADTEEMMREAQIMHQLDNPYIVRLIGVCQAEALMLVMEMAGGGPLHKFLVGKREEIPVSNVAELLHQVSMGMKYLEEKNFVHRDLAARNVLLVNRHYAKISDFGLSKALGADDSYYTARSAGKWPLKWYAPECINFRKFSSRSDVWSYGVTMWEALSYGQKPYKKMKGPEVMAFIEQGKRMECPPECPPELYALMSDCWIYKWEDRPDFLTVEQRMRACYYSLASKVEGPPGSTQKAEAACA
Assay [19] addresses Aurora kinase C (Homo sapiens) (UniProt Q9UQB9). The assay is described as follows: Inhibition of human Aurora C assessed as residual activity at 1 uM using [H-LRRASLG] as substrate by [gamma-33P]-ATP assay relative to control.
Assay [20] concerns the target Proto-oncogene tyrosine-protein kinase ROS (Homo sapiens) (UniProt P08922). The assay can be described thus: Inhibition of human ROS assessed as residual activity at 1 uM using KKKSPGEYVNIEFG as substrate by [gamma-33P]-ATP assay relative to control.
For assay [21], the target named is Cyclin-dependent kinase 14/Cyclin-Y (Homo sapiens) (UniProt O94921+Q8ND76). The assay can be described thus: Inhibition of human CDK14/cyclin-Y assessed as residual activity at 1 uM using RB protein as substrate by [gamma-33P]-ATP assay relative to control. It is filed as protein-complex assay.
Assay [22] has as its target Dual specificity tyrosine-phosphorylation-regulated kinase 1A (Homo sapiens) (UniProt Q13627). The assay can be described thus: Inhibition of human DYRK1A assessed as residual activity at 1 uM using RRRFRPASPLRGPPK as substrate by [gamma-33P]-ATP assay relative to control.
For assay [23], the target named is Tyrosine-protein kinase receptor UFO (Homo sapiens) (UniProt P30530). The assay is described as follows: Inhibition of human AXL assessed as residual activity at 1 uM using EAIYAAPFAKKK as substrate by [gamma-33P]-ATP assay relative to control.
Tyrosine-protein kinase receptor UFO (Homo sapiens), sequence (P30530 whole entry): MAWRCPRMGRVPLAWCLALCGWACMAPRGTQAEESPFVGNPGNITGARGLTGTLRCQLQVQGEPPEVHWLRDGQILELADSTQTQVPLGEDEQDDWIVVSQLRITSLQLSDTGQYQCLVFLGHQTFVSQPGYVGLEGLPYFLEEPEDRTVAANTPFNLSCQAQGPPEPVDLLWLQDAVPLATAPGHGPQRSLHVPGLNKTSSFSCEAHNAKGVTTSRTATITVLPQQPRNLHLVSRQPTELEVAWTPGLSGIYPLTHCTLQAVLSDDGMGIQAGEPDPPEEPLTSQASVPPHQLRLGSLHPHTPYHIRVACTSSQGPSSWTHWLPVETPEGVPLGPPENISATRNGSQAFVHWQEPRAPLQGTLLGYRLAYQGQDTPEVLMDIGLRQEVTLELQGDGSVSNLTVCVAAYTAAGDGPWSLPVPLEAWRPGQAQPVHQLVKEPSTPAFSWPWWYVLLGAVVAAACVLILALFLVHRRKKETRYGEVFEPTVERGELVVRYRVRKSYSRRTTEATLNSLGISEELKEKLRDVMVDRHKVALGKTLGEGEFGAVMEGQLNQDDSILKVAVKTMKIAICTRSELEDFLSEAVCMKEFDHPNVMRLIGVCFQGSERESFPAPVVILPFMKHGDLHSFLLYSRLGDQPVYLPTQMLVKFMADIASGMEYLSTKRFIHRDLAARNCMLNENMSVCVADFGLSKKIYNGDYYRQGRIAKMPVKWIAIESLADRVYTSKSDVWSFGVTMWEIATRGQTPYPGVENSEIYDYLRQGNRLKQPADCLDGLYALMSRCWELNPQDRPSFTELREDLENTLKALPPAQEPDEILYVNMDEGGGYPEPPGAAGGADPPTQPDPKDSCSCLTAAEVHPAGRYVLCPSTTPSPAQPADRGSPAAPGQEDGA

Angiopoietin-1 receptor (Homo sapiens), sequence (Q02763 whole entry): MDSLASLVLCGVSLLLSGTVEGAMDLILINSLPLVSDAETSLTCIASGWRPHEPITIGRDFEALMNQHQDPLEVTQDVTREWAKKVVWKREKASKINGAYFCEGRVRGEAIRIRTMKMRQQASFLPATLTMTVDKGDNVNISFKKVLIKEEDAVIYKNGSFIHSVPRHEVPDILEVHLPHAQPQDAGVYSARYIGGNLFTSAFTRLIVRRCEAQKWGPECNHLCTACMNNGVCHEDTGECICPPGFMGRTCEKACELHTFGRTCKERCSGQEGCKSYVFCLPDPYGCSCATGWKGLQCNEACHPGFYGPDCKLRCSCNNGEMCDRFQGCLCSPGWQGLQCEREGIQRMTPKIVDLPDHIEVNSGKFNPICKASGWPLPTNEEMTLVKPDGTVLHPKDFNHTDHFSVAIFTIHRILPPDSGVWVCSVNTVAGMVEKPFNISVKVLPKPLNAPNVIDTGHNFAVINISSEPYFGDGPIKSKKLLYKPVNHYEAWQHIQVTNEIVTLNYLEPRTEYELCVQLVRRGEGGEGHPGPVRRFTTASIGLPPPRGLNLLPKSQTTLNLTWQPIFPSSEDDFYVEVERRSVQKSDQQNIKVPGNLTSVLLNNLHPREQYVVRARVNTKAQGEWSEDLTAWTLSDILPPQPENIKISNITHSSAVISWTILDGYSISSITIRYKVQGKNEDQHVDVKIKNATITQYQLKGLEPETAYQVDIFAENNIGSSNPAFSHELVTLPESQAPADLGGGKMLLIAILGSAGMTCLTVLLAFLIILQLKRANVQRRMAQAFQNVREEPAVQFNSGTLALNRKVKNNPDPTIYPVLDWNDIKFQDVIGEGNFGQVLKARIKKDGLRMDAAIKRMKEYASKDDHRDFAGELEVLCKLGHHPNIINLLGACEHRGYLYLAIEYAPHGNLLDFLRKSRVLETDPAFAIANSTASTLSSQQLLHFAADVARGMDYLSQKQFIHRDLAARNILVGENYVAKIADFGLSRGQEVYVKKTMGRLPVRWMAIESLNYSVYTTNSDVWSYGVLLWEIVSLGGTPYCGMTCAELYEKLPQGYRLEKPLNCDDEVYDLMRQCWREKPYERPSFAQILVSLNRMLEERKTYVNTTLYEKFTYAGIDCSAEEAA
Calcium/calmodulin-dependent protein kinase kinase 1 (Homo sapiens), sequence (Q8N5S9 whole entry, looked up): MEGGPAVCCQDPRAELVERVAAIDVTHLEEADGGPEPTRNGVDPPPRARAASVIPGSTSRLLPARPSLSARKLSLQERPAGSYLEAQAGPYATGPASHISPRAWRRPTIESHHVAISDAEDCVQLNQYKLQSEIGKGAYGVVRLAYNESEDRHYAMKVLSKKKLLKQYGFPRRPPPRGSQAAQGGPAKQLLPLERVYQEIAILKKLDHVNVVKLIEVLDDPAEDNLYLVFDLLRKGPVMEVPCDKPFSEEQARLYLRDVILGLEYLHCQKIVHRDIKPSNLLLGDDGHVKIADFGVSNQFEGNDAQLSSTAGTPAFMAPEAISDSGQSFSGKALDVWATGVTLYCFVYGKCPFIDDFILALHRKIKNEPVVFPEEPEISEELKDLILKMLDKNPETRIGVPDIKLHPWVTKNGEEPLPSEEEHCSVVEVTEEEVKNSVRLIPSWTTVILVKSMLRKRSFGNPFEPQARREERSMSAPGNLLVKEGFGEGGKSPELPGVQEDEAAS

As to `ClC/C=C/C[N+]12CN3CN(CN(C3)C1)C2`, the Activity in [1] lay in the range of 94.7 to 94.8%; in assay [2] it was 88.2 to 88.7%; in assay [3], 118 to 123%; in assay [5] it was 90.2 to 95.2%; in assay [6] it was 83.3 to 87.1%; in assay [7] it was 86.5 to 88.4%. Besides, the Activity in [8] lay within 84.9 to 90.2%; in assay [9], 95.9 to 96%; in assay [10] it was 124 to 125%; in [11] it was 96 to 96.3%; in assay [12] it was 95.2 to 96%; in assay [13], 95.5 to 95.7%. For the same molecule, the Activity was in the range of 86.9 to 91.8% in assay [14]; 93.8 to 95.2% in assay [15]; 90.9 to 92.8% in assay [16]; 87.6 to 89% in assay [17]; 90.6 to 91.5% in [18]; 87.2 to 91.4% in [19]. In addition, the Activity in assay [20] fell in the range of 94 to 95.2%; in assay [21] it was 96.5 to 97.3%; in assay [22] it was 95.7 to 95.8%; in assay [23], 95.7 to 96.5%. For the same molecule, the inhibition result in assay [4] is “Dose-dependent effect”.
On to `C(=C\c1ccccc1)/C[N+]12CN3CN(CN(C3)C1)C2`, for which the Activity in [1] is 96.6 to 96.7%; in assay [2] it was 88.5 to 88.9%; in assay [3] it was 117 to 119%; in [5], 93.8 to 96.3%; in assay [6], 90.7 to 92.2%; in assay [7] it was 94.9 to 95.4%. Also, the Activity was in the range of 78.7 to 88% in [8]; 91.4 to 93.7% in assay [9]; 124 to 125% in [10]; 94.1 to 96.4% in assay [11]; 93.3 to 94.9% in assay [12]; 91.5 to 93.2% in [13]. Moreover, the Activity lay within 93.1 to 93.2% in assay [14]; 93.4 to 95.1% in assay [15]; 92.8 to 95.6% in [16]; 89.4 to 90.7% in assay [17]; 94.2 to 96.3% in [18]; 95.8 to 96.8% in assay [19]. Besides, the Activity in assay [20] is 94.4 to 94.8%; in assay [21] it was 95.2 to 96.5%; in assay [22] it was 95.8 to 96.4%; in assay [23], 94.8 to 94.9%. For the same molecule, in assay [4], the inhibition entry is “Dose-dependent effect”.

The values above are taken from ChEMBL document CHEMBL4325871 (Eur J Med Chem, 2019).
